# Measured values reported in PMC7887271, “Fast acting allosteric phosphofructokinase inhibitors block trypanosome glycolysis and cure acute African trypanosomiasis in mice” (Nature Communications, 2021).
# Several values for one entry are separate records, joined by “and”; a condition that tells them apart may be missing. Equal values may be shown once.
# Test system: T. b. brucei GVR35-Luc2
# Experiment: T. b. brucei GVR35-Luc2 time-to-kill assay (luciferin)
# Type: cell-based
# Settings: for Luminescence, Average / Luminescence, individual replicates: Time to kill assay for GVR35 cells
# Experimental: Enzyme activity was measured using an aldolase/TIM linked assay at 25 °C. […] Experiments were carried out in duplicate. Data are presented as mean values ± standard deviation. […] Source data are provided as a Source Data File. b Kill time of CTCB-405 compared with existing HAT drugs in the clinic. […] Over 99% of trypanosomes were killed in under 30 min compared with much slower killing rates for the other drugs. The points on the graph for CTCB-405 were determined from two independent biological replicate experiments with each time point measured twice (using duplicate technical replicates). The ESD for each point on the graph is between 0.7 and 1.4%. For drugs in clinical use each point on the graph is the average of two technical replicates from one experiment (with a maximum difference of 7.8% for any of the points). Source data are provided as a Source Data File.
# As predicted from the biology of the BSF that relies wholly on glycolysis for ATP production, inhibition of the pathway results in a very fast TTK. Two experimental methods were used to measure ATP levels as a real-time indicator of viability. For Tb427 parasites, a Cell Titre Glo kit was used and for the TbGVR35 bioluminescent strain, killing was assessed by adding luciferin which requires ATP to produce a luminescent signal (Supplementary Methods 4.3 and 4.4). […] The BSF of T. brucei cannot produce ATP by oxidative phosphorylation and is solely dependent on flux through the glycolytic pathway. The clear correlation between inhibitor dose and reduction in ATP production, as observed in the TTK assays strongly supports the proposed mode of action of the CTCB compounds is by blocking glycolysis. It is a long-established experimental observation that withdrawal of glucose nutrient leads to rapid loss of motility and cell death. It has recently been shown that the BSF of T. brucei can proliferate on high levels of glycerol; however, we have shown that addition of glycerol to the medium has little effect on parasite killing by the CTCB compounds (Supplementary Table 3).
# The killing of T. b. brucei GVR35-Luc2 was assessed by adding D-luciferin to live cells resulting in the production of light in the presence of ATP and luciferase activity. Compounds of interest were serially diluted from 16 µM to 0.5 µM in Modified HMI-9 medium and added into sterile white, flat bottom 96-well plate (Greiner Inc.). 32,000 trypanosomes were added to each well. The plates were incubated at 37 °C and 5% CO2. At the end of each incubation, 200 µg/ml of D-luciferin was added to each well and incubated for 10 min. Luminescence was measured using a BMG plate reader and percentage cell viability versus incubation time was determined.
# [1] = GVR35 TTK, 24 h incubation, replicate wells
structure (smiles),measurement,setting,value
"Cc1ccc(C(=O)Nc2ccc(S(=O)(=O)O)c3cc(S(=O)(=O)O)cc(S(=O)(=O)O)c23)cc1NC(=O)c1cccc(NC(=O)Nc2cccc(C(=O)Nc3cc(C(=O)Nc4ccc(S(=O)(=O)O)c5cc(S(=O)(=O)O)cc(S(=O)(=O)O)c45)ccc3C)c2)c1 [Suramin, suramin]",TTK (time-to-kill) value,,> 20 h
same,"% Cell viability, single replicates",0.5 h,91% and 97%
same,"% Inhibition, single replicates",0.5 h,9% and 2.59%
same,% Cell viability,"0.5 h, average",94%
same,% Inhibition,"0.5 h, mean, suramin, fexinidazole, SCYX-7158 11 µM, CTCB-405 4 µM",6%
same,"% Cell viability, single replicates",1 h,87% and 92%
same,"% Inhibition, single replicates",1 h,13% and 7.55%
same,% Cell viability,"1 h, average",90%
same,% Inhibition,"1 h, mean, suramin, fexinidazole, SCYX-7158 11 µM, CTCB-405 4 µM",10%
same,"% Cell viability, single replicates",2 h,95% and 89%
same,"% Inhibition, single replicates",2 h,4.69% and 11%
same,% Cell viability,"2 h, average",92%
same,% Inhibition,"2 h, mean, suramin, fexinidazole, SCYX-7158 11 µM, CTCB-405 4 µM",8%
same,"% Cell viability, single replicates",4 h,86%
same,"% Inhibition, single replicates",4 h,14% and 8.56%
same,% Cell viability,"4 h, average",89%
same,"% Cell viability, single replicates",6 h,80% and 82%
same,"% Inhibition, single replicates",6 h,20% and 18%
same,% Cell viability,"6 h, average",81%
same,% Inhibition,"6 h, mean, suramin, fexinidazole, SCYX-7158 11 µM, CTCB-405 4 µM",19%
same,"% Cell viability, single replicates",8 h,62% and 63%
same,"% Inhibition, single replicates",8 h,38% and 37%
same,% Cell viability,"8 h, average",62%
same,% Inhibition,"8 h, mean, suramin, fexinidazole, SCYX-7158 11 µM, CTCB-405 4 µM",38%
same,"% Cell viability, Average","GVR35 TTK, 24 h incubation, average",1.08%
same,"Luminescence (medium-subtracted), Average","GVR35 TTK, 24 h incubation, average of replicates",1271
same,% Inhibition,"GVR35 TTK, 24 h incubation, from average",99%
same,"% Cell viability, individual replicates",[1],1.06% and 1.11%
same,"% Inhibition, individual replicates",[1],99%
same,"Luminescence (medium-subtracted), individual replicates",[1],1370.5 and 1171.5
same,% Cell viability,"GVR35 TTK, 24 h sheet, summary line marked ""4""",1.08%
same,"Luminescence, Average",0.5 hour incubation,8640
same,"Luminescence, individual replicates",0.5 hour incubation,8520 and 8761
same,"Luminescence, Average",1hour incubation,10793
same,"Luminescence, individual replicates",1hour incubation,10604 and 10981
same,"Luminescence, Average",2hour incubation,13042
same,"Luminescence, individual replicates",2hour incubation,13027 and 13057
same,"Luminescence, Average",4hour incubation,16276
same,"Luminescence, individual replicates",4hour incubation,16058 and 16495
same,"Luminescence, Average",6hour incubation,27456
same,"Luminescence, individual replicates",6hour incubation,27109 and 27803
same,"Luminescence, Average",8hour incubation,19408
same,"Luminescence, individual replicates",8hour incubation,19222 and 19594
same,"Luminescence, Average",24hour incubation,1271
same,"Luminescence, individual replicates",24hour incubation,1371 and 1172
